Marks after values point to notes of the source that are not given here.
Key:
[1] = tested on: Candida albicans (ATCC no. 10231); assay: MIC determination by broth microdilution (NCCLS), visual scoring; format: cell-based; details: for MIC80: Candida albicans, ATCC10231, read-out: MIC80 C. albicans
Method: The antifungal activity of the 2,4,6-pyrimidinetrione analogs shown in Schemes 2-6 were evaluated in vitro using Candida albicans (ATCC no. 10231) and Candida glabrata (ATCC no 48435). All assays were done in accordance with NCCLS reference documents^29.
(§1) Master stock concentrations of all tested compounds were prepared to ensure that the maximum final concentration of DMSO was 1% or less. Subsequent 2-fold serial dilutions were made using sterile water to a final concentration of 1280-5.00 μg/ml. A final 10-fold dilution of each drug was made by aliquotting 0.1 mL of each drug dilution into 0.9 mL of fungal suspension in RPMI 1640 media with 10 mM HEPES buffer added (see methodology below), giving final concentrations tested in the range of 128-0.5 μg/ml.
(§2) Antifungal susceptibility studies and minimal inhibitory concentrations (MIC) values for Candida albicans (ATCC no. 10231) and Candida glabrata (ATCC no. 48435) were determined by the broth microdilution technique in accordance with NCCLS reference documents. Microdilution panels ranged from 0.5 to 128 μg/mL. All organisms were subcultured on Sabouraud agar and passaged to ensure purity and viability. The initiating inocula were prepared by picking 5-7 isolated colonies ˜1 mm in diameter from freshly prepared YM agar plates. Colonies were resuspended in sterile water, vortexed and the cell density was adjusted spectrophotometrically to the transmittance of a 0.5 McFarland standard at a wavelength of 530 nm, to yield a stock suspension of 1×10^6-5×10^6 cells/mL. The stock was allowed to hydrate for 30 minutes at room temperature. A working suspension was then made by diluting the stock 1:50 with RPMI 1640 media containing HEPES buffer. The working suspension was used for all assays. The plates were incubated at 35° C. for 48-72 hours in a humid atmosphere. Growth was scored visually. MIC values are defined as the lowest concentration of agent that prevents any discernible growth, ˜80% reduction of growth, as compared with drug-free control wells. All assays were run in parallel using either fluconazole or amphotericin B at the NCCLS recommended concentrations^29 as a drug control (Sigma-Aldrich).

[2] = tested on: Candida glabrata (ATCC no. 48435); assay: as above; format: cell-based; details: for MIC80: Nakaseomyces glabratus, ATCC48435, read-out: MIC80 C. glabrata; for MIC80 C. glabrata: Table 1, 5-Acyl-2,4,6-pyrimidinetriones, >80% growth inhibition, RPMI, 1% DMSO
Method: The antifungal activity of the 2,4,6-pyrimidinetrione analogs shown in Schemes 2-6 were evaluated in vitro using Candida albicans (ATCC no. 10231) and Candida glabrata (ATCC no 48435). All assays were done in accordance with NCCLS reference documents^29. The results of these screenings are summarized in Tables 1-9 as the minimal inhibitory concentrations that inhibited more than 80% fungal growth as compared to the positive controls in 1% DMSO and RPMI media. All MIC screens were done using a visual scoring method as opposed to spectroscopic methods of analysis, due to the physical properties of many of the compounds altering their absorbance spectra relative to the positive, negative and drug controls.
as §1, with “None of the compounds tested over the course of these studies were soluble in water and DMSO was used to dilute each compound tested. Master” for “Master”
as §2

[3] = Table 1, 5-Acyl-2,4,6-pyrimidinetriones, >80% growth inhibition, RPMI, 1% DMSO
[4] = Table 8, N-Acylhydrazones of 5-Acylpyrimidinetriones
[5] = Table 9, Benzenesuifonohydrazones of 5-Acylpyrimidinetrione

| SMILES | MIC80 C. albicans [1, 3] | MIC80 C. glabrata [2] | other results |
| --- | --- | --- | --- |
| O=C1NC(=O)C(C(=O)c2ccccc2)C(=O)N1 [BA1, 5-benzoyl-pyrimidine-2,4,6-trione] | – | – | MIC80 [1]: > 125 µg/mL; MIC80 [2]: > 125 µg/mL |
| CN1C(=O)NC(=O)C(C(=O)c2ccccc2)C1=O (stereo not shown) [BA2] | — (none of the 5-acyl-2,4,6-pyrimidinetriones, 5-alkylated pyrimidinetriones or the 5,5-dialkylated pyrimidinetriones showed antifungal activity through 125 μg/mL) | — (none of the 5-acyl-2,4,6-pyrimidinetriones, 5-alkylated pyrimidinetriones or the 5,5-dialkylated pyrimidinetriones showed antifungal activity through 125 μg/mL) | – |
| CN1C(=O)C(C(=O)c2ccccc2)C(=O)N(C)C1=O [BA3, 5-benzoyl-1,3-dimethylpyrimidine-2,4,6-trione] | – | – | MIC80 [1]: > 125 µg/mL; MIC80 [2]: > 125 µg/mL |
| O=C1NC(=O)C(C(=O)c2cccc([N+](=O)[O-])c2)C(=O)N1 [BA4] | — (none of the 5-acyl-2,4,6-pyrimidinetriones, 5-alkylated pyrimidinetriones or the 5,5-dialkylated pyrimidinetriones showed antifungal activity through 125 μg/mL) | — (none of the 5-acyl-2,4,6-pyrimidinetriones, 5-alkylated pyrimidinetriones or the 5,5-dialkylated pyrimidinetriones showed antifungal activity through 125 μg/mL) | – |
| CN1C(=O)C(C(=O)c2cccc([N+](=O)[O-])c2)C(=O)N(C)C1=O [BA5] | — (none of the 5-acyl-2,4,6-pyrimidinetriones, 5-alkylated pyrimidinetriones or the 5,5-dialkylated pyrimidinetriones showed antifungal activity through 125 μg/mL) | — (none of the 5-acyl-2,4,6-pyrimidinetriones, 5-alkylated pyrimidinetriones or the 5,5-dialkylated pyrimidinetriones showed antifungal activity through 125 μg/mL) | – |
| O=C1NC(=O)C(C(=O)c2ccc([N+](=O)[O-])cc2)C(=O)N1 [BA6] | — (none of the 5-acyl-2,4,6-pyrimidinetriones, 5-alkylated pyrimidinetriones or the 5,5-dialkylated pyrimidinetriones showed antifungal activity through 125 μg/mL) | — (none of the 5-acyl-2,4,6-pyrimidinetriones, 5-alkylated pyrimidinetriones or the 5,5-dialkylated pyrimidinetriones showed antifungal activity through 125 μg/mL) | – |
| CN1C(=O)C(C(=O)c2ccc([N+](=O)[O-])cc2)C(=O)N(C)C1=O [BA7] | — (none of the 5-acyl-2,4,6-pyrimidinetriones, 5-alkylated pyrimidinetriones or the 5,5-dialkylated pyrimidinetriones showed antifungal activity through 125 μg/mL) | — (none of the 5-acyl-2,4,6-pyrimidinetriones, 5-alkylated pyrimidinetriones or the 5,5-dialkylated pyrimidinetriones showed antifungal activity through 125 μg/mL) | – |
| O=C1NC(=O)C(C(=O)c2cc([N+](=O)[O-])cc([N+](=O)[O-])c2)C(=O)N1 [BA8] | — (none of the 5-acyl-2,4,6-pyrimidinetriones, 5-alkylated pyrimidinetriones or the 5,5-dialkylated pyrimidinetriones showed antifungal activity through 125 μg/mL) | — (none of the 5-acyl-2,4,6-pyrimidinetriones, 5-alkylated pyrimidinetriones or the 5,5-dialkylated pyrimidinetriones showed antifungal activity through 125 μg/mL) | – |
| CN1C(=O)C(C(=O)c2cc([N+](=O)[O-])cc([N+](=O)[O-])c2)C(=O)N(C)C1=O [BA9] | — (none of the 5-acyl-2,4,6-pyrimidinetriones, 5-alkylated pyrimidinetriones or the 5,5-dialkylated pyrimidinetriones showed antifungal activity through 125 μg/mL) | — (none of the 5-acyl-2,4,6-pyrimidinetriones, 5-alkylated pyrimidinetriones or the 5,5-dialkylated pyrimidinetriones showed antifungal activity through 125 μg/mL) | – |
| O=C1NC(=O)C(C(=O)c2ccc(O)cc2)C(=O)N1 [BA10] | — (none of the 5-acyl-2,4,6-pyrimidinetriones, 5-alkylated pyrimidinetriones or the 5,5-dialkylated pyrimidinetriones showed antifungal activity through 125 μg/mL) | — (none of the 5-acyl-2,4,6-pyrimidinetriones, 5-alkylated pyrimidinetriones or the 5,5-dialkylated pyrimidinetriones showed antifungal activity through 125 μg/mL) | – |
| CN1C(=O)C(C(=O)c2ccc(O)cc2)C(=O)N(C)C1=O [BA11] | — (none of the 5-acyl-2,4,6-pyrimidinetriones, 5-alkylated pyrimidinetriones or the 5,5-dialkylated pyrimidinetriones showed antifungal activity through 125 μg/mL) | — (none of the 5-acyl-2,4,6-pyrimidinetriones, 5-alkylated pyrimidinetriones or the 5,5-dialkylated pyrimidinetriones showed antifungal activity through 125 μg/mL) | – |
| CCCCN1C(=O)NC(=O)C(C(=O)c2ccc(O)cc2)C1=O (stereo not shown) [BA12] | — (none of the 5-acyl-2,4,6-pyrimidinetriones, 5-alkylated pyrimidinetriones or the 5,5-dialkylated pyrimidinetriones showed antifungal activity through 125 μg/mL) | — (none of the 5-acyl-2,4,6-pyrimidinetriones, 5-alkylated pyrimidinetriones or the 5,5-dialkylated pyrimidinetriones showed antifungal activity through 125 μg/mL) | – |
| O=C1NC(=O)N(c2ccccc2)C(=O)C1C(=O)c1ccc(O)cc1 (stereo not shown) [BA13] | — (none of the 5-acyl-2,4,6-pyrimidinetriones, 5-alkylated pyrimidinetriones or the 5,5-dialkylated pyrimidinetriones showed antifungal activity through 125 μg/mL) | — (none of the 5-acyl-2,4,6-pyrimidinetriones, 5-alkylated pyrimidinetriones or the 5,5-dialkylated pyrimidinetriones showed antifungal activity through 125 μg/mL) | – |
| COc1ccc(C(=O)N/N=C/C2C(=O)NC(=O)NC2=O)cc1 [BA132] | – | – | MIC80 C. albicans [1, 4]: — (none of the 5-acyl-2,4,6-pyrimidinetriones, 5-alkylated pyrimidinetriones or the 5,5-dialkylated pyrimidinetriones showed antifungal activity through 125 μg/mL) |
| COc1ccc(C(=O)N/N=C/C2C(=O)N(C)C(=O)N(C)C2=O)cc1 [BA133] | – | – | MIC80 C. albicans ([1]; Table 8, values marked * (no footnote in this table)): 62* μg/mL |
| COc1ccc(C(=O)NN=C(C)C2C(=O)NC(=O)NC2=O)cc1 [BA134] | – | – | MIC80 C. albicans [1, 4]: — (none of the 5-acyl-2,4,6-pyrimidinetriones, 5-alkylated pyrimidinetriones or the 5,5-dialkylated pyrimidinetriones showed antifungal activity through 125 μg/mL) |
| COc1ccc(C(=O)NN=C(C)C2C(=O)N(C)C(=O)N(C)C2=O)cc1 [BA135] | – | – | MIC80 C. albicans [1, 4]: — (none of the 5-acyl-2,4,6-pyrimidinetriones, 5-alkylated pyrimidinetriones or the 5,5-dialkylated pyrimidinetriones showed antifungal activity through 125 μg/mL) |
| O=C1NC(=O)C(C=NNS(=O)(=O)c2ccccc2)C(=O)N1 [BA136] | – | – | MIC80 C. albicans [1, 5]: — (none of the 5-acyl-2,4,6-pyrimidinetriones, 5-alkylated pyrimidinetriones or the 5,5-dialkylated pyrimidinetriones showed antifungal activity through 125 μg/mL) |
| CN1C(=O)C(C=NNS(=O)(=O)c2ccccc2)C(=O)N(C)C1=O [BA137] | – | – | MIC80 C. albicans [1, 5]: — (none of the 5-acyl-2,4,6-pyrimidinetriones, 5-alkylated pyrimidinetriones or the 5,5-dialkylated pyrimidinetriones showed antifungal activity through 125 μg/mL) |
| C/C(=N\NS(=O)(=O)c1ccccc1)C1C(=O)NC(=O)NC1=O [BA138] | – | – | MIC80 C. albicans [1, 5]: — (none of the 5-acyl-2,4,6-pyrimidinetriones, 5-alkylated pyrimidinetriones or the 5,5-dialkylated pyrimidinetriones showed antifungal activity through 125 μg/mL) |
| C/C(=N\NS(=O)(=O)c1ccccc1)C1C(=O)N(C)C(=O)N(C)C1=O [BA139] | – | – | MIC80 C. albicans [1, 5]: — (none of the 5-acyl-2,4,6-pyrimidinetriones, 5-alkylated pyrimidinetriones or the 5,5-dialkylated pyrimidinetriones showed antifungal activity through 125 μg/mL) |

— patent US20160235752A1, “COMPOSITIONS, METHODS OF USE, AND METHODS OF TREATMENT” (THE UNIVERSITY OF NEW ORLEANS, priority 2013, published 2016)
